Results reported in patent US20250092065A1, “2-(INDAZOL-5-YL)-6-(PIPERIDIN-4-YL)-1,7-NAPHTHYRIDINE DERIVATIVES AND RELATED COMPOUNDS AS MODULATORS FOR SPLICING NUCLEIC ACIDS AND FOR THE TREATMENT OF PROLIFERATIVE DISEASES” (REMIX THERAPEUTICS INC., priority 2022, published 2025).
Counter-ions that a name gives are not always drawn. Like-named read-outs stand apart in the source and are kept apart here.

Assays:
HTT = experiment: HiBiT protein abundance assay, HTT (K562 HiBiT knock-in); format: cell-based, human; conditions: HiBiT knock-in K562 cells, 24 hours, top dose 10 μM
In short: (§1)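 Steps: seed HiBiT knock-in K562 cells; add compound in 10-point 3-fold series from 10 μM final; incubate 24 h, 37 °C; add lytic HiBiT reagent, shake 5 min, wait 10 min; read luminescence. Normalize to parental K562 and DMSO controls, fit 4PL, take IC50.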

MYB = experiment: HiBiT protein abundance assay, MYB (K562 HiBiT knock-in); format: cell-based, human; conditions: HiBiT knock-in K562 cells, 24 hours, top dose 10 μM
In short: as §1

K562 cells = experiment: Cell Titer Glo 2.0 cell viability (toxicity) assay, K562; conditions: 500 cells/well, 72 hours
Method: Compounds described herein were screened for toxicity in K562 (human chronic myelogenous leukemia) and SH-SY5Y (human neuroblastoma) cells using a Cell Titer Glo 2.0 assay.
Cells were plated at 500 cells/well (K562 cells) in 45 μL of IMDM supplemented with 10% FBS in a 384-well opaque plate. Wells containing only medium were used as a blank control. Test compounds (e.g., compounds of Formula (I) or (II)) were first serially diluted in DMSO then diluted 1:100 with EIDM+10% FBS. The final concentration of DMSO was 0.1% in each well. The cells were incubated for 72 hours at 37° C. and 5% CO2 before assaying with Cell Titer Glo 2.0 reagent.

MYB mRNA = experiment: RT-qPCR splicing assay, MYB mRNA canonical (CJ) and alternative (AJ) junction; format: cell-based, human; conditions: Homo sapiens; for AC50: MYB alternative junction mRNA, read-out: MYB AJ (increase in AJ mRNA, AC50)
In short: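 A673 or K562 cells treated 24 h at 37 °C with an 11-point 3-fold dilution series (top 10 uM, DMSO ≤0.25%). Lysates went directly to one-step RT-qPCR quantifying canonical (CJ) and alternative-exon (AJ) junctions, normalized to GAPDH, GUSB or PPIA. Values from ΔΔCt versus DMSO, RQ = 2^(−ΔΔCt), expressed as percentage response.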

Target C = experiment: HiBiT protein abundance assay, Target C (K562 HiBiT knock-in); format: cell-based, human; conditions: HiBiT knock-in K562 cells, 24 hours, top dose 10 μM
In short: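 K562 HiBiT knock-in cells (10000/well) were treated 24 h at 37° C with a 10-point 3-fold dilution series (top 10 μM final, ≤0.25% DMSO). HiBiT luminescence was read after lytic LgBiT detection. Percent response used unmodified K562 and DMSO-treated knock-in controls, and IC50 came from a four-parameter fit at 50% of untreated.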

[1] = MYB canonical junction mRNA, RT-qPCR, read-out: MYB CJ (decrease in CJ mRNA levels, IC50)
[2] = canonical junction qPCR panel, Table 4, read-out: MYB IC50 (decrease in CJ mRNA levels)

IC50 (HTT) [nM] | IC50 (MYB) [nM] | IC50 (MYB mRNA; [1]) [nM] | IC50 (MYB mRNA; [2]) [nM] | IC50 (Target C) [nM] | Compound | Effect of Exemplary Compounds on Cell Viability, K562 (K562 cells) | AC50 (MYB mRNA; RT-qPCR) [nM]
1000 to 10000 | 1000 to 10000 | 1000 to 10000 | 1000 to 10000 | 1000 to 10000 | Cc1c(O)c(-c2nc(-c3c[nH]nn3)c3cc(N4CCNCC4)ccc3n2)cc2cn(C)nc12 [Compound 538, 2,7-dimethyl-5-[6-(piperazin-1-yl)-4-(1H-1,2,3-triazol-4-yl)quinazolin-2-yl]indazol-6-ol hydrochloride] | C (C represents 1000-9999 nM) | 1000 to 10000
< 100 | < 100 | < 100 | < 100 | < 100 | Cc1c(O)c(-c2nc(C(=O)NC(C)C)c3cc(N4C[C@@H](C)N[C@@H](C)C4)ccc3n2)cc2cn(C)nc12 [Compound 539, 6-[(3R,5S)-3,5-dimethylpiperazin-1-yl]-2-(6-hydroxy-2,7-dimethylindazol-5-yl)-N-isopropylquinazoline-4-carboxamide] | A (A represents <100 nM) | < 100
100 to 1000 | < 100 | < 100 | < 100 | 100 to 1000 | Cc1c(O)c(-c2nc(C(=O)NC3CCC3)c3cc(N4C[C@@H](C)N[C@@H](C)C4)ccc3n2)cc2cn(C)nc12 [Compound 540] | A (A represents <100 nM) | < 100
> 10000 | > 10000 | 1000 to 10000 | 1000 to 10000 | > 10000 | Cc1c(O)c(-c2nc(-c3nn[nH]n3)c3cc(N4CCNCC4)ccc3n2)cc2cn(C)nc12 [Compound 541, 2,7-dimethyl-5-[6-(piperazin-1-yl)-4-(2H-1,2,3,4-tetrazol-5-yl)quinazolin-2-yl]indazol-6-ol] | C (C represents 1000-9999 nM) | 1000 to 10000
1000 to 10000 | < 100 | < 100 | < 100 | 100 to 1000 | C[C@@H]1CN(c2ccc3nc(-c4cc5cn(C)nc5c(F)c4O)nc(C4CC4)c3c2)C[C@H](C)N1 [Compound 542, 5-{4-cyclopropyl-6-[(3R,5S)-3,5-dimethylpiperazin-1-yl]quinazolin-2-yl}-7-fluoro-2-methylindazol-6-ol] | B (B represents 100-1000 nM) | < 100
< 100 | < 100 | < 100 | < 100 | 100 to 1000 | CN[C@@H]1CCN(c2ccc3nc(-c4cc5cn(C)nc5c(F)c4O)nc(C4CC4)c3c2)C1 [Compound 543, 5-{4-cyclopropyl-6-[(3R)-3-(methylamino)pyrrolidin-1-yl]quinazolin-2-yl}-7-fluoro-2-methylindazol-6-ol] | A (A represents <100 nM) | < 100

The remaining lines, values behind:

Compound | IC50 (HTT) [nM] | IC50 (MYB) [nM] | IC50 (MYB mRNA; [1]) [nM] | IC50 (MYB mRNA; [2]) [nM] | IC50 (Target C) [nM] | Effect of Exemplary Compounds on Cell Viability, K562 (K562 cells) | AC50 (MYB mRNA; RT-qPCR) [nM]
Cc1c(O)c(-c2ncc3nc(N4C[C@@H](C)N[C@@H](C)C4)ccc3n2)cc2cn(C)nc12 [Compound 526, 5-{6-[(3R,5S)-3,5-dimethylpiperazin-1-yl]pyrido[3,2-d]pyrimidin-2-yl}-2,7-dimethylindazol-6-ol] | 100 to 1000 | 100 to 1000 | < 100 | < 100 | 100 to 1000 | B (B represents 100-1000 nM) | 100 to 1000
CNC(=O)c1nc(-c2cc3cn(C)nc3c(F)c2O)nc2ccc(N3C[C@@H](C)N[C@@H](C)C3)cc12 [Compound 527, 6-[(3R,5S)-3,5-dimethylpiperazin-1-yl]-2-(7-fluoro-6-hydroxy-2-methylindazol-5-yl)-N-methylquinazoline-4-carboxamide] | < 100 | < 100 | < 100 | < 100 | 100 to 1000 | A (A represents <100 nM) | < 100
CNC(=O)c1nc(-c2cc3cn(C)nc3c(F)c2O)nc2ccc(N3CCC(N(C)C)CC3)cc12 [Compound 528, 6-[4-(dimethylamino)piperidin-1-yl]-2-(7-fluoro-6-hydroxy-2-methylindazol-5-yl)-N-methylquinazoline-4-carboxamide] | 100 to 1000 | < 100 | < 100 | < 100 | 100 to 1000 | A (A represents <100 nM) | < 100
CNC(=O)c1nc(-c2cc3cn(C)nc3c(F)c2O)nc2ccc(N3CCN[C@@H](C)C3)cc12 [Compound 529, 2-(7-fluoro-6-hydroxy-2-methylindazol-5-yl)-N-methyl-6-[(3S)-3-methylpiperazin-1-yl]quinazoline-4-carboxamide] | < 100 | < 100 | < 100 | < 100 | 100 to 1000 | A (A represents <100 nM) | < 100
CNC(=O)c1nc(-c2cc3cn(C)nc3cc2O)nc2ccc(N3CCN[C@@H](C)C3)cc12 [Compound 530, 2-(6-hydroxy-2-methylindazol-5-yl)-N-methyl-6-[(3S)-3-methylpiperazin-1-yl]quinazoline-4-carboxamide] | 100 to 1000 | < 100 | < 100 | < 100 | 100 to 1000 | A (A represents <100 nM) | < 100
CNC(=O)c1nc(-c2cc3cn(C)nc3cc2O)nc2ccc(N3C[C@@H](C)N[C@@H](C)C3)cc12 [Compound 531, 6-[(3R,5S)-3,5-dimethylpiperazin-1-yl]-2-(6-hydroxy-2-methylindazol-5-yl)-N-methylquinazoline-4-carboxamide] | 100 to 1000 | < 100 | < 100 | < 100 | 1000 to 10000 | A (A represents <100 nM) | < 100
CNC(=O)c1nc(-c2cc3cn(C)nc3c(C)c2O)nc2ccc(N3CCNC4(CC4)C3)cc12 [Compound 532, 6-{4,7-diazaspiro[2.5]octan-7-yl}-2-(6-hydroxy-2,7-dimethylindazol-5-yl)-N-methylquinazoline-4-carboxamide] | 100 to 1000 | < 100 | < 100 | < 100 | 100 to 1000 | B (B represents 100-1000 nM) | < 100
CNC(=O)c1nc(-c2cc3cn(C)nc3c(C)c2O)nc2ccc(N3CCNCC3)nc12 [Compound 533, 2-(6-hydroxy-2,7-dimethylindazol-5-yl)-N-methyl-6-(piperazin-1-yl)pyrido[3,2-d]pyrimidine-4-carboxamide] | 1000 to 10000 | 100 to 1000 | 100 to 1000 | 100 to 1000 | 1000 to 10000 | B (B represents 100-1000 nM) | 100 to 1000
CNC(=O)c1nc(-c2cc3cn(C)nc3c(C)c2O)nc2ccc(N3C[C@@H](C)N[C@@H](C)C3)nc12 [Compound 534, 6-[(3R,5S)-3,5-dimethylpiperazin-1-yl]-2-(6-hydroxy-2,7-dimethylindazol-5-yl)-N-methylpyrido[3,2-d]pyrimidine-4-carboxamide] | 1000 to 10000 | 100 to 1000 | 100 to 1000 | 100 to 1000 | 1000 to 10000 | B (B represents 100-1000 nM) | 100 to 1000
CCNC(=O)c1nc(-c2cc3cn(C)nc3c(C)c2O)nc2ccc(N3C[C@@H](C)N[C@@H](C)C3)cc12 [Compound 535, 6-[(3R,5S)-3,5-dimethylpiperazin-1-yl]-N-ethyl-2-(6-hydroxy-2,7-dimethylindazol-5-yl)quinazoline-4-carboxamide] | < 100 | < 100 | < 100 | < 100 | 100 to 1000 | A (A represents <100 nM) | < 100
CNC(=O)c1nc(-c2cc3cn(C)nc3c(C)c2O)nc2ccc(N3CC[C@@H](NC)C3)cc12 [Compound 536, 2-(6-hydroxy-2,7-dimethylindazol-5-yl)-N-methyl-6-[(3R)-3-(methylamino)pyrrolidin-1-yl]quinazoline-4-carboxamide] | < 100 | < 100 | < 100 | < 100 | < 100 | A (A represents <100 nM) | < 100
CNC(=O)c1nc(-c2cc3cn(C)nc3c(C)c2O)nc2ccc(N3CC[C@H](NC)C3)cc12 [Compound 537, 2-(6-hydroxy-2,7-dimethylindazol-5-yl)-N-methyl-6-[(3S)-3-(methylamino)pyrrolidin-1-yl]quinazoline-4-carboxamide] | < 100 | < 100 | < 100 | < 100 | < 100 | A (A represents <100 nM) | < 100
